One compound from patent US20160075689A1, “POLYMERASE, ENDONUCLEASE, AND HELICASE INHIBITORS AND METHODS OF USING THEREOF” (THE BOARD OF TRUSTEES OF THE UNIVERSITY OF ARKANSAS, priority 2013, published 2016) can be followed below.

The target in one experiment is T1, DNase I (Homo sapiens, UniProt P24855).
T1 sequence (P24855 23-282): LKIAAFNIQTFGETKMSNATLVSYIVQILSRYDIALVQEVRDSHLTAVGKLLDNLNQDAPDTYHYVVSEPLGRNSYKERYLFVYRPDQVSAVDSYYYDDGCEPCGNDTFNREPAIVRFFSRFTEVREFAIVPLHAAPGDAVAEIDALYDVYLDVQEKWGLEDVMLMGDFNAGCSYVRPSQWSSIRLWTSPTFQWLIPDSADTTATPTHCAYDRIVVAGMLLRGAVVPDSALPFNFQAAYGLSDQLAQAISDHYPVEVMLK
Briefly: Endonuclease screening assay, specificity. The experiment is classed as biochemical. An excerpt: (§1) Specificity of a potential inhibitor is important for any in vitro or in vivo application, and generally defines the usefulness of an inhibitor. To determine specificity of the inhibitors for the two EndoG inhibitors, PNR-3-80 and PNR-3-82, their IC50 values for EndoG were compared using the screening assay with the IC50 values for two other endonucleases, DNase I and DNAse II (FIG. 11). These endonucleases were chosen because they represent the majority of endonuclease activity in most mammalian cells and because of their availability as pure enzymes.
(§2) A reaction mixture was prepared in each well of a white 96-well plate (Costar, Corning, N.Y.) as follows: 0.25 μM Cy5.5-labeled oligonucleotide (described in US provisional patent filed Oct. 19, 2012, Ser. No. 61/716,097) 0.3 mM MgCl2, 10 mM Tris-HCl, pH 7.4, 1 μl DMSO containing 5 or 50 ng of test compound, and nuclease-free water for a total reaction volume of 100 μl. The background (negative control) and uninhibited EndoG samples were measured using DMSO only, or DMSO containing recombinant EndoG (4 μg/ml), respectively. After addition of EndoG, fluorescence intensity was kinetically measured on a Bio-Tek Synergy 4.0 plate reader at 37° C. and mean velocity (mRFU/min) within 20 min was automatically calculated by the plate reader. The background was subtracted prior to the calculation of EndoG activity (%). The percent of EndoG activity was calculated from the mean velocity of a compound divided by the mean velocity of DMSO with recombinant EndoG, and the obtained value multiplied by 100.

In a further experiment the target is T2, DNase II (Homo sapiens, UniProt O00115).
T2 sequence (O00115 19-360): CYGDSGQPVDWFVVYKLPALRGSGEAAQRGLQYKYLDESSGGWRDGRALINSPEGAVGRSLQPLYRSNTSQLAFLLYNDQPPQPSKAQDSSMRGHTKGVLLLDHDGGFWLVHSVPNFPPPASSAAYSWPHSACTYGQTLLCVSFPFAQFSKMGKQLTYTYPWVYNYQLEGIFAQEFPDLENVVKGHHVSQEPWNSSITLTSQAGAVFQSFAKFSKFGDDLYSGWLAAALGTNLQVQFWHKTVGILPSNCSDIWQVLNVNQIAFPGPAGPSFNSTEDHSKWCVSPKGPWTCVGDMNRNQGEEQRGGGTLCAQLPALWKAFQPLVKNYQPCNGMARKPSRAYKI
Briefly: Endonuclease screening assay, specificity. The experiment is classed as biochemical.
Text: as §1, §2

A further experiment has as its target T3, NS3 helicase (Hepatitis C virus genotype 1b, UniProt P26663).
T3 construct: analyze the helicase activity of NS3 helicase in the presence of the compounds; made in house
As to the kind of experiment: Gel-based helicase assay. The format is biochemical, HCV. To be noted: standard helicase assay. The procedure: Benchtop unwinding assays were performed to analyze the helicase activity of NS3 helicase in the presence of the compounds. The unwinding reaction was initiated by mixing the right (N53, compound, assay buffer) and left (radiolabeled substrate, ATP, assay buffer) reactions, which was then quenched. The ssDNA product formed over time is separated from dsDNA substrate by 20% native PAGE. The ratio of dsDNA substrate to ssDNA product is quantified using ImageQuant and the fraction of substrate unwound at each time-point is plotted as a function of time using Kaleidagraph software.

The target of another experiment is NS3-4A (Hepatitis C virus genotype 1b, UniProt P26663). As to the kind of experiment: NS3 protease activity assay. The format is biochemical, HCV. The note with it: 25 μM compound, 50 nM NS3-4A, 100 nM substrate. On the procedure: The protease activity of NS3 was analyzed in the presence of 25 μM ITBA-3-79, ITBA-3-82 or ITBA-3-85 by using 50 nM NS3-4A and 100 nM substrate (Ac-Asp-Glu-Asp-EDANS-Glu-Glu-Abu-L-Lactoyl-Ser-Lys DABCYL-NH2). The emission spectra of EDANS and the absorption spectra of DABCYL overlap making the peptide internally quenched. Cleaving of the substrate by the protease results in an increase in fluorescence that can be measured (λex−355 nm; λem, −500 nm). Telapravir (10 μM) was used as a positive control.

The next experiment has as its system RNase A. Briefly: Ribonuclease A activity in NRK-52E cell extract. The note with it: 0.1 μM and 10 μM. The experiment is classed as biochemical. The procedure:
(§3) As a follow up to Example 8, the effects of the EndoG inhibitors PNR-3-80 and PNR-3-82, at 0.1 μM and 10 μM each, on the activities of four other enzymes including RNase A, protease, LDH, and SOD in NRK-52E cell extract were examined. NRK-52E cells were grown to ˜80% confluence in […]. The medium was aspirated and the cells were rinsed with ice cold 1×PBS, pH 7.4. The cells were lysed in 50 mM Tris-HCl, pH 7.4, 150 mM NaCl, 1% Triton X-100 for 10 min on ice and then briefly sonicated. Cell debris was removed by centrifugation at 13,000×g for 10 min at 4° C. The supernatant was collected and stored at −80° C. until use. LDH, Protease, Superoxide dismutase (SOD), and Ribonuclease A (RNase A) activities were measured by using CytoTox 96® Non-Radioactive Cytotoxicity Assay kit (Promega, Madison, Wis.), Protease Fluorescent Detection kit (Sigma-Aldrich, Saint Louis, Mo.), SOD determination kit (Sigma-Aldrich, Saint Louis, Mo.), and Ribonuclease A Detection kit (Sigma-Aldrich, Saint Louis, Mo.), respectively, according to the manufacturer's instructions.

Another experiment concerns LDH. Briefly: LDH activity in NRK-52E cell extract. The note with it: 0.1 μM and 10 μM. The experiment is classed as biochemical. The procedure: as §3

T3 sequence (P26663 1027-1657): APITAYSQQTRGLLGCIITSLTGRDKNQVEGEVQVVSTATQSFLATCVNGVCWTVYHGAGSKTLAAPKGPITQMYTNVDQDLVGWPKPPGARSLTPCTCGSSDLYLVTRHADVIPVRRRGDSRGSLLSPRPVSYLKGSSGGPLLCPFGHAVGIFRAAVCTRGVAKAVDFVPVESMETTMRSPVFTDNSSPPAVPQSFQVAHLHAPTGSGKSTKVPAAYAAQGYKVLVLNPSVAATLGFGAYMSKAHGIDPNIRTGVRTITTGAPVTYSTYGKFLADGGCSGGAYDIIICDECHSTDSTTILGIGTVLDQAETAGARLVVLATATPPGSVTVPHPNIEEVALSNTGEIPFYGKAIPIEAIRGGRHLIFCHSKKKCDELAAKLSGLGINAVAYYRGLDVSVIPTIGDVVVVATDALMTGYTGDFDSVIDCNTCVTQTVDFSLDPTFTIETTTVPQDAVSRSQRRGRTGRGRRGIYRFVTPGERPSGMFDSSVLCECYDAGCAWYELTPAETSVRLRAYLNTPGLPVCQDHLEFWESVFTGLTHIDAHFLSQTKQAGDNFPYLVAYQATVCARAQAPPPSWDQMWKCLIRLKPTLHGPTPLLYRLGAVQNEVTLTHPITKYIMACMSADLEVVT
Sequence of NS3-4A (P26663 1027-1657): as above
Sequence of NS3-4A (P26663 1658-1711): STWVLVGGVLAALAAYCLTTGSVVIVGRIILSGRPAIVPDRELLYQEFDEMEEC

A word on the IC50: it is the concentration at which inhibition is half-maximal. In the case of `COc1ccc2c(c1)c(C=C1C(=O)NC(=S)NC1=O)cn2C(=O)c1ccc2ccccc2c1` [PNR-3-82], the IC50 at DNase I came out at 63.3 µM. The “effect on DNase II activity” value on DNase II is recorded as “did not have any effect”. Further, the “NS3 helicase activity, gel electrophoresis” value at NS3 helicase is “confirmed the inhibition”. At NS3-4A, the NS3 protease activity entry is listed as “do not block protease activity”. The “RNase A activity” value with RNase A was “none of the two tested compounds had any inhibiting activity”. Besides, the LDH activity result in the experiment with LDH is listed as “none of the two tested compounds had any inhibiting activity”.
